Measured values reported in ChEMBL document CHEMBL5126532, “Synthetic approaches and structural diversity of triazolylbutanols derived from voriconazole in the antifungal drug development” (Eur J Med Chem, 2022).
Values after ≈ are worked out from the molar mass of the structure shown.

How the values were obtained:
Candida = assay: Antifungal activity against Candida spp.; assay type: functional
Aspergillus fumigatus [1] = assay: Antifungal activity against Aspergillus fumigatus in 96-well microplate method; assay type: functional
Cryptococcus neoformans [2] = assay: Antifungal activity against Cryptococcus neoformans; assay type: functional; conditions: Cryptococcus neoformans; read-out: MIC
Aspergillus sp. = assay: Antifungal activity against Aspergillus sp; assay type: functional; conditions: Aspergillus sp.; read-out: MIC
Aspergillus fumigatus [3] = assay: In vivo antifungal activity against Aspergillus fumigatus infected in CDF1 mouse treated po 4 hrs after injection twice daily for 2 days measured on day 10; assay type: functional; conditions: 48 h, time 2 day
Cryptococcus neoformans [4] = assay: Antifungal activity against Cryptococcus neoformans TIMM1740 by agar-dilution assay; assay type: functional
Candida albicans [5] = assay: Antifungal activity against Candida albicans TIMM1850 by agar-dilution assay; assay type: functional
Cryptococcus neoformans [6] = assay: Antifungal activity against Cryptococcus neoformans TIMM1855 assessed as inhibition of fungal growth incubated for 68 hrs; assay type: functional
Aspergillus fumigatus [7] = assay: Antifungal activity against Aspergillus fumigatus TIMM1728 by agar-dilution assay; assay type: functional
Candida albicans [8] = assay: In vivo antifungal activity against Candida albicans infected in CDF1 mouse treated po 4 hrs after injection twice daily for 2 days measured on day 10; assay type: functional; conditions: 48 h, time 2 day
Aspergillus fumigatus [9] = assay: Antifungal activity against Aspergillus fumigatus 437 by agar-dilution assay; assay type: functional
Candida albicans [10] = assay: Antifungal activity against Candida albicans TIMM1756 assessed as inhibition of fungal growth incubated for 20 hrs; assay type: functional
Cryptococcus neoformans [11] = assay: Antifungal activity against Cryptococcus neoformans TIMM1855 by agar-dilution assay; assay type: functional; conditions: TIMM 1855
Candida albicans [12] = assay: Antifungal activity against Candida albicans TIMM1756 by agar-dilution assay; assay type: functional
Aspergillus fumigatus [13] = assay: Antifungal activity against Aspergillus fumigatus IFO6344 by agar-dilution assay; assay type: functional
Cryptococcus neoformans [14] = assay: Antifungal activity against Cryptococcus neoformans TIMM1740 assessed as inhibition of fungal growth incubated for 68 hrs; assay type: functional
Aspergillus fumigatus [15] = assay: Antifungal activity against Aspergillus fumigatus TIMM1728 assessed as inhibition of fungal growth incubated for 20 hrs; assay type: functional
Aspergillus fumigatus [16] = assay: Antifungal activity against Aspergillus fumigatus IFO6344 assessed as inhibition of fungal growth incubated for 20 hrs; assay type: functional
Candida albicans [17] = assay: Antifungal activity against Candida albicans TIMM1850 assessed as inhibition of fungal growth incubated for 20 hrs; assay type: functional
Aspergillus fumigatus [18] = assay: Antifungal activity against Aspergillus fumigatus assessed as inhibition of fungal growth incubated for 20 hrs; assay type: functional
Candida albicans [19] = assay: In vivo antifungal activity against Candida albicans infected in CDF1 mouse treated po or iv 2 hrs after infection twice daily for 2 days measured on day 10; assay type: functional; conditions: 240 h, time 10 day
Candida albicans [20] = assay: Antifungal activity against Candida albicans SANK 51486 by 96-well microplate method; assay type: functional
Candida tropicalis = assay: Antifungal activity against Candida tropicalis; assay type: functional
Pichia kudriavzevii = assay: Antifungal activity against Candida krusei; assay type: functional
Cryptococcus neoformans [21] = assay: Antifungal activity against Cryptococcus neoformans TIMM 1855 by 96-well microplate method; assay type: functional
Candida parapsilosis = assay: Antifungal activity against Candida parapsilosis; assay type: functional; conditions: Lodderomyces parapsilosis
Nakaseomyces glabratus = assay: Antifungal activity against Candida glabrata; assay type: functional
Aspergillus fumigatus [22] = assay: Antifungal activity against Aspergillus fumigatus SANK 10569 by 96-well microplate method; assay type: functional
Candida albicans [23] = assay: In vivo antifungal activity against Candida albicans infected in CDF1 mouse treated po or iv immediately after infection measured on day 7; assay type: functional; conditions: 168 h, time 7 day
Candida albicans [24] = assay: Antifungal activity against Candida albicans; assay type: functional
Aspergillus flavus = assay: Antifungal activity against Aspergillus flavus SANK 18497 by 96-well microplate method; assay type: functional
Aspergillus fumigatus [25] = assay: In vivo antifungal activity against Aspergillus fumigatus infected in Fisher rat administered IV; assay type: functional
Aspergillus fumigatus [26] = assay: In vivo antifungal activity against Aspergillus fumigatus infected in Fisher rat administered po; assay type: functional
Candida albicans [27] = assay: In vivo antifungal activity against Candida albicans ATCC48130 infected in Fisher rat administered po; assay type: functional
Candida albicans [28] = assay: In vivo antifungal activity against Candida albicans ATCC48130 infected in Fisher rat administered IV; assay type: functional
Candida albicans [29] = assay: Antifungal activity against Candida albicans assessed as inhibition of fungal growth incubated for 20 hrs; assay type: functional
[30] = Metabolic stability in human plasma assessed as half life by measuring TAK-456 metabolite formation preinubated for 5 mins followed by compound addition measured at 5 to 120 mins by HPLC analysis; assay type: ADME, cell-free; conditions: time 5-120 min
[31] = Metabolic stability in Sprague-Dawley rat plasma assessed as half life by measuring TAK-456 metabolite formation preincubated for 5 mins followed by compound addition measured at 5 to 120 mins by HPLC analysis; assay type: ADME, cell-free; conditions: time 5-120 min
[32] = Metabolic stability in ICR mouse plasma assessed as half life by measuring TAK-456 metabolite formation preincubated for 5 mins followed by compound addition measured at 5 to 120 mins by HPLC analysis; assay type: ADME, cell-free; conditions: time 5-120 min
Aspergillus fumigatus [33] = assay: Antifungal activity against Aspergillus fumigatus; assay type: functional
Nannizzia gypsea = assay: Antifungal activity against Microsporum gypseum; assay type: functional
[34] = Water solubility of the compound at pH 7.4; assay type: physicochemical; conditions: buffer
Cytochrome P450 3A4 = Cytochrome P450 3A4 (Homo sapiens, UniProt P08684); assay: Inhibition of CYP3A4 in human hepatocyte microsomes using testosterone as substrate by LC-MS/MS analysis; assay type: ADME, Microsome
Cytochrome P450 3A4, sequence (P08684 whole entry): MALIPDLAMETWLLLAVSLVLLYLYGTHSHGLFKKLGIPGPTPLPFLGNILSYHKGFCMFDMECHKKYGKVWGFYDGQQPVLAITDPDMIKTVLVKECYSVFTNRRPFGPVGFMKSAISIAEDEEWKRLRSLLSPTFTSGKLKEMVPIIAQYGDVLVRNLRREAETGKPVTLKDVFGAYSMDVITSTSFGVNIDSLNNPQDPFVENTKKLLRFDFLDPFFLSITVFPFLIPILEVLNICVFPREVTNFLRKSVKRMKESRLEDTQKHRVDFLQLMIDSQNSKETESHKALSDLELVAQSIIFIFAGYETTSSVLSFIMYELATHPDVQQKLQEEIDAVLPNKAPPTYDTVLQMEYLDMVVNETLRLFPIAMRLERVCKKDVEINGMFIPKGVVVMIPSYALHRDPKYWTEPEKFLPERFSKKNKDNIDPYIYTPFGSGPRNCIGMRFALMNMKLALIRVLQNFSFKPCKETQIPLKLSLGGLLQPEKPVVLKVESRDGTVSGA

[35] = Prodrug conversion in rat plasma assessed as half life; assay type: ADME, cell-free

## C[C@@H](N1Cc2sc(Br)nc2C1=O)[C@](O)(Cn1cncn1)c1ccc(F)cc1F
Candida
  MIC: 0.0625 µg/mL (≈ 0.133 µM)
Aspergillus fumigatus [1]
  MIC80: 4 µg/mL (≈ 8.51 µM)
Cryptococcus neoformans [2]
  MIC: 0.125 µg/mL (≈ 0.266 µM)
Aspergillus sp.
  MIC: 16 µg/mL (≈ 34 µM)

## C[C@@H](N1C(=O)N(c2ccc(-n3cnnn3)cc2)CC1O)[C@](O)(Cn1cncn1)c1ccc(F)cc1F (stereo in doubt; 140a)
Candida
  MIC: ≥ 0.25 µg/mL
Cryptococcus neoformans [2]
  MIC: 8 µg/mL (≈ 16.1 µM)
Aspergillus sp.
  MIC: 32 µg/mL (≈ 64.3 µM)

## C[C@@H](N1CCN(c2ccc(-n3ncnn3)cc2)C1=O)[C@](O)(Cn1cncn1)c1ccc(F)cc1F
Aspergillus fumigatus [3]
  ED50: 4 mg/kg
Cryptococcus neoformans [4]
  MIC: 0.03 µg/mL (≈ 0.0623 µM)
Candida albicans [5]
  MIC: 0.002 µg/mL (≈ 0.00415 µM)
Cryptococcus neoformans [6]
  MIC: 0.016 µg/mL (≈ 0.0332 µM)
Aspergillus fumigatus [7]
  MIC: 0.03 µg/mL (≈ 0.0623 µM)
Candida albicans [8]
  ED50: 0.18 mg/kg
Aspergillus fumigatus [9]
  MIC: 0.03 µg/mL (≈ 0.0623 µM)
Candida albicans [10]
  MIC: ≤ 0.001 µg/mL
Cryptococcus neoformans [11]
  MIC: 0.03 µg/mL (≈ 0.0623 µM)
Candida albicans [12]
  MIC: 0.002 µg/mL (≈ 0.00415 µM)
Aspergillus fumigatus [13]
  MIC: 0.03 µg/mL (≈ 0.0623 µM)
Cryptococcus neoformans [14]
  MIC: 0.016 µg/mL (≈ 0.0332 µM)
Aspergillus fumigatus [15]
  MIC: 0.25 µg/mL (≈ 0.519 µM)
Aspergillus fumigatus [16]
  MIC: 0.25 µg/mL (≈ 0.519 µM)
Candida albicans [17]
  MIC: ≤ 0.001 µg/mL

## C[C@@H](N1Cc2cc(Br)sc2C1=O)[C@](O)(Cn1cncn1)c1ccc(F)cc1F
Aspergillus fumigatus [18]
  MIC: 0.25 µg/mL (≈ 0.533 µM)

## CCC(C)n1ncn(-c2ccc(N3CCN(c4ccc(OCC5COC(Cn6cncn6)(c6ccc(Cl)cc6Cl)O5)cc4)CC3)cc2)c1=O (centres undefined) [ITRACONAZOLE]
Candida albicans [19]
  ED50: 19 mg/kg
Candida albicans [20]
  MIC: 0.031 µg/mL (≈ 0.0439 µM)
Candida tropicalis
  MIC: ≤ 0.25 µg/mL
Pichia kudriavzevii
  MIC: ≤ 0.25 µg/mL
Cryptococcus neoformans [21]
  MIC: 0.031 µg/mL (≈ 0.0439 µM)
Candida parapsilosis
  MIC: ≤ 0.25 µg/mL
Nakaseomyces glabratus
  MIC: ≤ 0.25 µg/mL
Aspergillus fumigatus [22]
  MIC: 0.031 µg/mL (≈ 0.0439 µM)
Candida albicans [23]
  ED50: 5.19 mg/kg
Candida albicans [24]
  MIC: ≤ 0.25 µg/mL
Aspergillus flavus
  MIC: 0.031 µg/mL (≈ 0.0439 µM)

## C[C@@H](N1CCN(c2ccc(-n3cncn3)cc2)C1=O)[C@](O)(Cn1cncn1)c1ccc(F)cc1F
Aspergillus fumigatus [3]
  ED50: 4.4 mg/kg
Cryptococcus neoformans [6]
  MIC: 0.016 µg/mL (≈ 0.0333 µM)
Candida albicans [8]
  ED50: 0.18 mg/kg
Candida albicans [10]
  MIC: ≤ 0.001 µg/mL
Cryptococcus neoformans [14]
  MIC: 0.016 µg/mL (≈ 0.0333 µM)
Aspergillus fumigatus [15]
  MIC: 0.25 µg/mL (≈ 0.52 µM)
Aspergillus fumigatus [16]
  MIC: 0.25 µg/mL (≈ 0.52 µM)
Candida albicans [17]
  MIC: ≤ 0.001 µg/mL

## CNCC(=O)Oc1c(C)cc(C[n+]2cnn(C[C@](O)(c3ccc(F)cc3F)[C@@H](C)c3nc(-c4ccc(C#N)cc4)cs3)c2)cc1C
Aspergillus fumigatus [25]
  ED50: 17 µmol/kg
Aspergillus fumigatus [26]
  ED50: 19 µmol/kg
Candida albicans [27]
  ED50: 4.7 µmol/kg
Candida albicans [28]
  ED50: 4.6 µmol/kg

## CC(=O)OC[n+]1cnn(C[C@](O)(c2ccc(F)cc2F)[C@@H](C)N2CCN(c3ccc(-n4cnnn4)cc3)C2=O)c1.[Cl-]
Candida albicans [19]
  ED50: 4.49 mg/kg
Candida albicans [29]
  MIC: 0.016 µg/mL
[30]
  t1/2: 5 min
[31]
  t1/2: 5 min
[32]
  t1/2: 5 min
Candida albicans [23]
  ED50: 0.62 mg/kg

## CC(C)Cn1ncn(-c2ccc(N3CCN([C@H](C)[C@](O)(Cn4cncn4)c4ccc(F)cc4F)CC3)nc2)c1=O
Candida
  MIC: 0.03 µg/mL (≈ 0.0542 µM)
Aspergillus fumigatus [33]
  MIC: 4 µg/mL (≈ 7.23 µM)
Candida parapsilosis
  MIC: 0.25 µg/mL (≈ 0.452 µM)
Cryptococcus neoformans [2]
  MIC: 0.25 µg/mL (≈ 0.452 µM)

## OC(Cn1cncn1)(Cn1cncn1)c1ccc(F)cc1F [FLUCONAZOLE]
Candida albicans [19]
  ED50: 179 mg/kg
Candida albicans [20]
  MIC: 0.25 µg/mL (≈ 0.816 µM)
Candida tropicalis
  MIC: 0.12 µg/mL (≈ 0.392 µM)
Pichia kudriavzevii
  MIC: 0.12 µg/mL (≈ 0.392 µM)
Aspergillus fumigatus [33]
  MIC: > 64 µg/mL
Candida albicans [8]
  ED50: 0.22 mg/kg
Cryptococcus neoformans [21]
  MIC: 0.25 µg/mL (≈ 0.816 µM)
Candida parapsilosis
  MIC: 0.12 µg/mL (≈ 0.392 µM)
Nakaseomyces glabratus
  MIC: 0.12 µg/mL (≈ 0.392 µM)
Aspergillus fumigatus [22]
  MIC: 0.25 µg/mL (≈ 0.816 µM)
Candida albicans [23]
  ED50: 0.22 mg/kg
Nannizzia gypsea
  MIC: 32 µg/mL (≈ 104 µM)
Candida albicans [24]
  MIC: 0.12 µg/mL (≈ 0.392 µM)
Aspergillus flavus
  MIC: 0.25 µg/mL (≈ 0.816 µM)

## C[C@@H](N1CCN(c2ccc(-n3cnnn3)cc2)C1=O)[C@](O)(Cn1cncn1)c1ccc(F)cc1F
Aspergillus fumigatus [3]
  ED50: 4 mg/kg
Candida albicans [19]
  ED50: 3.56 mg/kg
Candida albicans [29]
  MIC: 0.16 µg/mL (≈ 0.332 µM)
Cryptococcus neoformans [6]
  MIC: 0.016 µg/mL (≈ 0.0332 µM)
Candida albicans [8]
  ED50: 0.18 mg/kg
Candida albicans [10]
  MIC: ≤ 0.001 µg/mL
Candida albicans [23]
  ED50: 0.77 mg/kg
Cryptococcus neoformans [14]
  MIC: 0.016 µg/mL (≈ 0.0332 µM)
Aspergillus fumigatus [15]
  MIC: 0.25 µg/mL (≈ 0.519 µM)
Aspergillus fumigatus [16]
  MIC: 0.25 µg/mL (≈ 0.519 µM)
Candida albicans [17]
  MIC: ≤ 0.001 µg/mL

## C[C@@H](c1nc(-c2ccc(C#N)cc2)cs1)[C@](O)(Cn1cncn1)c1ccc(F)cc1F [RAVUCONAZOLE]
[34]
  solubility: 600 µg/mL (≈ 1370 µM)
Cytochrome P450 3A4
  IC50: 1010 nM
Nannizzia gypsea
  MIC80: 1 µg/mL (≈ 2.29 µM)

## C[C@@H](N1CCN(c2ccc(-n3ccnn3)cc2)C1=O)[C@](O)(Cn1cncn1)c1ccc(F)cc1F
Aspergillus fumigatus [3]
  ED50: 4 mg/kg
Cryptococcus neoformans [6]
  MIC: 0.016 µg/mL (≈ 0.0333 µM)
Candida albicans [8]
  ED50: 0.18 mg/kg
Candida albicans [10]
  MIC: ≤ 0.001 µg/mL
Cryptococcus neoformans [14]
  MIC: 0.016 µg/mL (≈ 0.0333 µM)
Aspergillus fumigatus [15]
  MIC: 0.25 µg/mL (≈ 0.52 µM)
Aspergillus fumigatus [16]
  MIC: 0.25 µg/mL (≈ 0.52 µM)
Candida albicans [17]
  MIC: ≤ 0.001 µg/mL

## COc1ccc(-c2nc3c(s2)CN([C@H](C)[C@](O)(Cn2cncn2)c2ccc(F)cc2F)C3=O)cn1
Aspergillus fumigatus [1]
  MIC80: 4 µg/mL (≈ 8.02 µM)

## CC(=O)OCc1ccccc1N(C)C(=O)OC[n+]1cnn(C[C@](O)(c2ccc(F)cc2F)[C@@H](C)c2nc(-c3ccc(C#N)cc3)cs2)c1.[Cl-]
[35]
  t1/2: 13 min
